US8673974B2, “Substituted amino bisphenyl pentanoic acid derivatives as NEP inhibitors” (Novartis AG, priority 2010, dated 2014)

Biological target: T1, recombinant human neutral endopeptidase (NEP, EC 3.4.24.11) (Homo sapiens, UniProt P08473)
T1 construct: made in house; host or cells: insect cells
Assay: in vitro inhibition of recombinant human neutral endopeptidase (fluorescence lifetime assay)
Assay type: biochemical
Settings: recombinant human NEP 7 pM, 1 hour pre-incubation, substrate Cys(PT14)-Arg-Arg-Leu-Trp-OH 0.7 μM, read after 1 hour at room temperature, pH 7.4
Excerpt: The activity of a compound according to the present invention can be assessed by the following in vitro & in vivo methods and/or by the following in vitro & in vivo methods well-described in the art. See A fluorescence lifetime-based assay for protease inhibitor profiling on human kallikrein 7 Doering K, Meder G, Hinnenberger M, Woelcke J, Mayr L M, Hassiepen U Biomol Screen.
In particular, the in vitro inhibition of recombinant human neutral endopeptidase (NEP, EC 3.4.24.11) can be determined as follows: […]

T1 sequence (P08473 whole entry): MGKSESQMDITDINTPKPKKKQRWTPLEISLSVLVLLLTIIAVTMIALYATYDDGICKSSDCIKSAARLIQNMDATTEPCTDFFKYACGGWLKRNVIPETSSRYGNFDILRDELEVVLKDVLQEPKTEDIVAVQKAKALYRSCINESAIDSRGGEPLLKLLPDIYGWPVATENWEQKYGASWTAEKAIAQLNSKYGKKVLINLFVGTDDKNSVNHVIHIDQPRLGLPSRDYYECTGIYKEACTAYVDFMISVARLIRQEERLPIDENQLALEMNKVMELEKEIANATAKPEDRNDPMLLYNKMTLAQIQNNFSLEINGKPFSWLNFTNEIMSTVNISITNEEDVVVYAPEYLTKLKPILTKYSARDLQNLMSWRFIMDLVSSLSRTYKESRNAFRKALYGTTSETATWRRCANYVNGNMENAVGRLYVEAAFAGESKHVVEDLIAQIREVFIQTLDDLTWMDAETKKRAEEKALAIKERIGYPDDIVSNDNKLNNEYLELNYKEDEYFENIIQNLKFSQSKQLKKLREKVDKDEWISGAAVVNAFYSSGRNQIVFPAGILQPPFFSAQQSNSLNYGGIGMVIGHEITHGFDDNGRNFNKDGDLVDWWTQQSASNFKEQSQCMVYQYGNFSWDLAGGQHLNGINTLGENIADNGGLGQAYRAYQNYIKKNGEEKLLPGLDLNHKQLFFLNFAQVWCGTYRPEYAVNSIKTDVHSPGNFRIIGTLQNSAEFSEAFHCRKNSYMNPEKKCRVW

IC50: 3 nM
Compound: COc1ccccc1-c1ccc(C[C@H](CC(C)C(=O)O)NC(=O)CCC(=O)O)cc1 (stereo partly drawn) [Example 6, (S)-4-(3-Carboxy-propionylamino)-5-(2′-methoxy-biphenyl-4-yl)-2-methyl-pentanoic acid]
